Results published in patent US8217000B2, “Method for elevating prolactin in mammals” (Cara Therapeutics, Inc., priority 2006, dated 2012).
Counter-ions that a name gives are not always drawn. Non-standard residues stand in square brackets, D forms with d. Residues, ends and D or L forms follow the SMILES beside them. *: point of attachment. NH(4-picolyl) = c1cc(CN*)ccn1; dNle = CCCC[C@@H](N)C(=O)O

Experiment: Plasma pharmacokinetics of CR665 after single IV infusion in human subjects
Settings: for half-life / clearance / Vd / AUC(0-t) / AUC(0-inf) / Cmax / MRT / Tmax: human, plasma; for clearance: CL; for AUC(0-t): AUC0-t; for AUC(0-inf): AUC0-∞; for MRT: MRTint; for Tmax: median
Description: This clinical study was conducted as a double blind, placebo controlled, ascending single intravenous (IV) dose, sequential group study. This study was double blind and placebo controlled in order to avoid bias in the collection and evaluation of data during its conduct. […] In each group, subjects received CR665 or placebo. Doses were administered as a single constant rate IV infusion over 1 hour (part A) or 5 minutes (part B) on the morning of Day 1. Doses were administered in an escalating manner following satisfactory review of the safety data and pharmacokinetic data from the lower dose levels. There was a minimum of 6 days between dose escalations to allow sufficient time for an adequate safety review.
Plasma and urine samples for the analysis of CR665 and N oxide metabolite were prepared by solid phase extraction. The centrifuged eluates were quantified by liquid chromatography with tandem mass spectrometric detection (LC MS/MS). The lower limit of quantification was 1 ng/mL.
For pharmacokinetic assessments, blood samples (1×3 mL) were taken from the contralateral forearm vein(s) at the following times: Pre-dose, 15 minutes, 30 minutes, 45 minutes, 1 hour (immediately prior to the end of infusion), 1 hour 5 minutes, 1 hour 10 minutes, 1 hour 15 minutes, 1.5, 2, 2.5, 3, 4, 6, 8, 12, 16, 24, 36 and 48 hours after the start of the infusion). An indwelling cannula (Venflon®; BOC Ohmeda AB, Sweden) was used for all blood collection pre-dose and up to at least 12 hours after the start of the infusion. Otherwise, samples were collected using venipuncture. Blood samples were collected into pre-chilled 3 mL K3EDTA Vacutainer™ tubes (Becton Dickinson UK, Ltd., Oxford) and, after mixing, were placed in a cool box containing crushed ice/water. The samples were centrifuged, within 30 minutes of collection, at 1500 g for 10 minutes at approximately 4° C. For each sample, the separated plasma was transferred into two 5 mL suitably labeled polypropylene tubes, and stored immediately at approximately −20° C. Plasma samples were analyzed for CR665 using liquid chromatography with tandem mass spectrometric detection.
The pharmacokinetic analysis was conducted using WinNonlin Enterprise Version 4.0.1.
Pharmacokinetic parameters were determined from the plasma and urine, concentrations of CR665 and the N-oxide metabolite using non compartmental procedures.
Dose and body weight normalized values (norm) were determined for AUC0-t, AUC0-∞, Cinf and Cmax. Body weight normalized values [norm] were determined for Vz, Vss, CL and CLR.
The pharmacokinetic analysis was conducted using model independent methods as implemented in WinNonlin software, based on plasma concentrations of CR665 from those subjects who have received CR665 and have evaluable plasma concentration-time profiles.
The following plasma pharmacokinetic parameters were determined for CR665: • Cmax Maximum plasma concentration • tmax Time of maximum plasma concentration • t1/2z Terminal half-life=ln(2)/λz • AUC0-1 Area under the plasma concentration-time curve from time zero to time t (time of last quantifiable plasma concentration) • AUCinf Area under the plasma concentration-time curve from time zero to infinity calculated as [AUC0-t+(Clast/λz)] where Clast is the estimated concentration at the last quantifiable concentration curve. • λz Terminal-phase rate constant, also known as Kel • CL Total body clearance=Dose/AUCinf • Vz Volume of distribution based on terminal phase calculated as Vz/F=Dose/λz*AUCinf
Individual elapsed sampling times were used in the pharmacokinetic analysis. Cmax and tmax were obtained directly from the experimental observations. For the purpose of calculating AUC0-t, when two consecutive plasma concentrations below the lower limit of quantification (LLOQ) were encountered after tmax, all subsequent values were excluded from the analysis.

[1] = female, iv, 0.06 mg/kg, females, 5-minute IV infusion, geometric mean
[2] = female, iv, 0.24 mg/kg, females, 1-hour IV infusion, geometric mean
[3] = females, 0.24 mg/kg dose level as printed, Part B text
[4] = male, iv, 0.015 mg/kg, males, 1 hour IV infusion, geometric mean
[5] = male, iv, 0.03 mg/kg, males, 5-minute IV infusion, geometric mean
[6] = male, iv, 0.03 mg/kg, males, 1 hour IV infusion, geometric mean

Work on CCCC[C@@H](NC(=O)[C@@H](Cc1ccccc1)NC(=O)[C@H](N)Cc1ccccc1)C(=O)N[C@H](CCCNC(=N)N)C(=O)NCc1ccncc1 [CR665, D-phenylalanyl-D-phenylalanyl-D-norleucyl-N-(4-pyridinylmethyl)-D-argininamide, acetate salt] (H-[dF][dF][dNle][dR]-{NH(4-picolyl)}) yielded a half-life (both, intravenous, 0.24 mg/kg, Mean terminal elimination half-life, male and female subjects, 1-hour infusion) of 72 to 84 min, a clearance (female, intravenous, 0.06 mg/kg, geometric least squares mean, females, 5-minute infusion) of 544 mL/min and a half-life (female, intravenous, 0.06 mg/kg, Mean terminal elimination half life, females, 5-minute infusion) of ~48 min. For the same molecule, the Vd (female, intravenous, 0.06 mg/kg, Vss, geometric least squares mean, females, 5-minute infusion) was 14.1 L, the Vd (female, intravenous, 0.06 mg/kg, Vz, geometric least squares mean, females, 5-minute infusion) was 45.7 L and the half-life (female, intravenous, 0.06 mg/kg, t1/2, geometric least squares mean, females, 5-minute infusion) was 56.8 min. The clearance (female, intravenous, 0.24 mg/kg, geometric least squares mean, females, 1-hour infusion) was 573 mL/min, the half-life (female, intravenous, 0.24 mg/kg, Mean terminal elimination half-life, females, 1-hour infusion) was 72 min and the Vd (female, intravenous, 0.24 mg/kg, Vss, geometric least squares mean, females, 1-hour infusion) was 17 L. For the same molecule, the Vd (female, intravenous, 0.24 mg/kg, Vz, geometric least squares mean, females, 1-hour infusion) was 50.2 L, the half-life (female, intravenous, 0.24 mg/kg, t1/2, geometric least squares mean, females, 1-hour infusion) was 63 min and the AUC(0-t) [1] was 120 ng·h/mL. For the same molecule, the AUC(0-inf) [1] was 122 ng·h/mL, the clearance [1] was 544 mL/min and the Cmax [1] was 520 ng/mL. For the same molecule, the MRT [1] was 25.1 min, the Vd (female, iv, 0.06 mg/kg, Vss, females, 0.06 mg/kg, 5-minute IV infusion, geometric mean) was 13.7 L and the Vd (female, iv, 0.06 mg/kg, Vz, females, 5-minute IV infusion, geometric mean) was 39.2 L. It also gave a half-life (female, iv, 0.06 mg/kg, t1/2, females, 5-minute IV infusion, geometric mean) of 50 min, a Tmax (female, iv, 0.06 mg/kg, females, 5-minute IV infusion) of 5 min and an AUC(0-t) [2] of 440 ng·h/mL. For the same molecule, the AUC(0-inf) [2] was 442 ng·h/mL, the clearance [2] was 557 mL/min and the Cmax [2] was 384 ng/mL. For the same molecule, the MRT [2] was 30.9 min, the Vd (female, iv, 0.24 mg/kg, Vss, females, 0.24 mg/kg, 1-hour IV infusion, geometric mean) was 17.2 L and the Vd (female, iv, 0.24 mg/kg, Vz, females, 1-hour IV infusion, geometric mean) was 55.7 L. For the same molecule, the half-life (female, iv, 0.24 mg/kg, t1/2, females, 1-hour IV infusion, geometric mean) was 69.6 min, the Tmax (female, iv, 0.24 mg/kg, females, 1-hour IV infusion) was 45 min and the “AUC0-t (norm), ratio of geometric least squares means 5-minute:1-hour” value (females) was 1.04. For the same molecule, the “AUC0-∞ (norm), ratio of geometric least squares means 5-minute:1-hour” value (females) was 1.05, the “CL, ratio of geometric least squares means 5-minute:1-hour” value (females) was 0.950 and the “Cmax (norm), ratio of geometric least squares means 5-minute:1-hour” value (females) was 5.27. For the same molecule, the “Cmax, fold higher for the 5-minute compared to the 1-hour infusion” value (females) was 5.3 fold, the “MRTint, ratio of geometric least squares means 5-minute:1-hour” value (females) was 0.864 and the “Vss, ratio of geometric least squares means 5-minute:1-hour” value (females) was 0.832. For the same molecule, the “Vz, ratio of geometric least squares means 5-minute:1-hour” value (females) was 0.911, the “t1/2, ratio of geometric least squares means 5-minute:1-hour” value (females) was 0.901 and the “Between-subject variability (CV %) for AUC0-∞” value [3] was 8.8%. For the same molecule, the “Between-subject variability (CV %) for Cmax” value [3] was 18.8%, the “MRTint, geometric least squares mean” value (females, 1-hour infusion) was 29.9 min and the “MRTint, geometric least squares mean” value (females, 5-minute infusion) was 25.8 min. It also gave a half-life (intravenous, Apparent elimination half life, individual subjects, males, 0.12 to 0.48 mg/kg, 1 hour infusion) of 72 to 180 min, a Vd (male, intravenous, Apparent volume of distribution at steady state (VSS), males, 0.12 to 0.48 mg/kg dose range) of 19 to 23 L and a clearance (male, intravenous, geometric least squares mean, males, 1-hour infusion, Parts A & B) of 557 mL/min. It also gave a clearance (male, intravenous, geometric least squares mean, males, 5-minute infusion, Parts A & B) of 538 mL/min, a half-life (male, intravenous, Mean apparent elimination half life, males, 0.015 to 0.06 mg/kg, 1 hour infusion) of ~42 min and a half-life (male, intravenous, Mean apparent elimination half life, males, 0.03 to 0.09 mg/kg, 5-minute infusion) of 60 to 78 min. It also gave a half-life (male, intravenous, Mean apparent elimination half life, males, 0.12 to 0.48 mg/kg, 1 hour infusion) of 84 to 114 min, a Vd (male, intravenous, Vss, geometric least squares mean, males, 1-hour infusion, Parts A & B) of 20.1 L and a Vd (male, intravenous, Vss, geometric least squares mean, males, 5-minute infusion, Parts A & B) of 18.1 L. It also gave a Vd (male, intravenous, Vz, geometric least squares mean, males, 1-hour infusion, Parts A & B) of 59.1 L, a Vd (male, intravenous, Vz, geometric least squares mean, males, 5-minute infusion, Parts A & B) of 61 L and a half-life (male, intravenous, t1/2, geometric least squares mean, males, 1-hour infusion, Parts A & B) of 75 min. The half-life (male, intravenous, t1/2, geometric least squares mean, males, 5-minute infusion, Parts A & B) was 76.8 min, the AUC(0-t) [4] was 30 ng·h/mL and the AUC(0-inf) [4] was 31.4 ng·h/mL. The clearance [4] was 560 mL/min, the Cmax [4] was 27.8 ng/mL and the MRT [4] was 30.7 min. The Vd (male, iv, 0.015 mg/kg, Vss, males, 0.015 mg/kg, 1 hour IV infusion, geometric mean) was 17.2 L, the Vd (male, iv, 0.015 mg/kg, Vz, males, 1 hour IV infusion, geometric mean) was 33.5 L and the half-life (male, iv, 0.015 mg/kg, t1/2, males, 1 hour IV infusion, geometric mean) was 41.5 min. The Tmax (male, iv, 0.015 mg/kg, males, 1 hour IV infusion) was 60 min, the AUC(0-t) [5] was 65.9 ng·h/mL and the AUC(0-t) [6] was 70 ng·h/mL. The AUC(0-inf) [5] was 68.4 ng·h/mL, the AUC(0-inf) [6] was 72.5 ng·h/mL and the clearance [5] was 473 mL/min. It also gave a clearance [6] of 538 mL/min, a Cmax [5] of 233 ng/mL and a Cmax [6] of 65.3 ng/mL. It also gave an MRT [5] of 36.9 min, an MRT [6] of 30.6 min and a Vd (male, iv, 0.03 mg/kg, Vss, males, 0.03 mg/kg, 5-minute IV infusion, geometric mean) of 17.4 L. It also gave a Vd (male, iv, 0.03 mg/kg, Vss, males, 0.03 mg/kg, 1 hour IV infusion, geometric mean) of 16.5 L, a Vd (male, iv, 0.03 mg/kg, Vz, males, 5-minute IV infusion, geometric mean) of 53.6 L and a Vd (male, iv, 0.03 mg/kg, Vz, males, 1 hour IV infusion, geometric mean) of 34.1 L. It also gave a half-life (male, iv, 0.03 mg/kg, t1/2, males, 5-minute IV infusion, geometric mean) of 78.6 min, a half-life (male, iv, 0.03 mg/kg, t1/2, males, 1 hour IV infusion, geometric mean) of 43.9 min and a Tmax (male, iv, 0.03 mg/kg, males, 5-minute IV infusion) of 5 min. The Tmax (male, iv, 0.03 mg/kg, males, 1 hour IV infusion) was 60 min, the AUC(0-t) (male, iv, 0.06 mg/kg, males, 5-minute IV infusion, geometric mean) was 139 ng·h/mL and the AUC(0-t) (male, iv, 0.06 mg/kg, males, 1 hour IV infusion, geometric mean) was 129 ng·h/mL.
